Test system: K98450-129-R-PDC multicell spheroids, viability
Test: Anticancer human tumor K98450-129-R-PDC patient-derived colon adenocarcinoma cell line growth inhibition [PI3K]
Settings: for IC50: curve of first compound; for viability, T/C: stronger effect = lower value
Procedure, shortened: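 Stroma-containing spheroids: tumor line, pooled-donor HUVEC, hMSC. Treatments: targeted agents with PI3K inhibitors. Dosing: clinically relevant, half-log spacing, 10 microM ceiling without known Cmax. Read-out: cell viability.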

[1] = second compound 0.00316 µM, first compound 0.0316 µM
[2] = second compound 0.00316 µM, first compound 0.1 µM
[3] = second compound 0.00316 µM, first compound 0.316 µM
[4] = second compound 0.00316 µM, first compound 1 µM
[5] = second compound 0.01 µM, first compound 0.0316 µM
[6] = second compound 0.01 µM, first compound 0.1 µM
[7] = second compound 0.01 µM, first compound 0.316 µM
[8] = second compound 0.01 µM, first compound 1 µM
[9] = second compound 0.0316 µM, first compound 0.0316 µM
[10] = second compound 0.0316 µM, first compound 0.1 µM
[11] = second compound 0.0316 µM, first compound 0.316 µM
[12] = second compound 0.0316 µM, first compound 1 µM
[13] = second compound 0.1 µM, first compound 0.0316 µM
[14] = second compound 0.1 µM, first compound 0.1 µM
[15] = second compound 0.1 µM, first compound 0.316 µM
[16] = second compound 0.1 µM, first compound 1 µM
[17] = second compound 0.316 µM, first compound 0.0316 µM
[18] = second compound 0.316 µM, first compound 0.1 µM
[19] = second compound 0.316 µM, first compound 0.316 µM
[20] = second compound 0.316 µM, first compound 1 µM
[21] = second compound 1 µM, first compound 0.0316 µM
[22] = second compound 1 µM, first compound 0.1 µM
[23] = second compound 1 µM, first compound 0.316 µM
[24] = second compound 1 µM, first compound 1 µM
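Also: spheroids exposed to agents for seven days before read-out.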

In the case of `CCN1CCN(Cc2ccc(Nc3ncc(F)c(-c4cc(F)c5nc(C)n(C(C)C)c5c4)n3)nc2)CC1` + CC(Nc1ccc2c(c1)OCCn1cc(N3C(=O)OCC3C(F)F)nc1-2)C(N)=O, the IC50 (second compound 0.00316 µM) is reported as > 1 µM, the IC50 (second compound 0.01 µM) is reported as > 1 µM and the IC50 (second compound 0.0316 µM) is reported as > 1 µM. The IC50 (second compound 0.1 µM) was > 1 µM, the IC50 (second compound 0.316 µM) was > 1 µM and the IC50 (second compound 1 µM) was > 1 µM. The viability, T/C (second compound 0.00316 µM, first compound 0.00316 µM) was 105%, the viability, T/C (second compound 0.00316 µM, first compound 0.01 µM) was 92.2% and the viability, T/C [1] was 104%. The viability, T/C [2] was 90.3%, the viability, T/C [3] was 81% and the viability, T/C [4] was 82.9%. For the same compound, the viability, T/C (second compound 0.01 µM, first compound 0.00316 µM) was 117%, the viability, T/C (second compound 0.01 µM, first compound 0.01 µM) was 90.5% and the viability, T/C [5] was 98.7%. For the same compound, the viability, T/C [6] was 92.3%, the viability, T/C [7] was 84.9% and the viability, T/C [8] was 86.9%. For the same compound, the viability, T/C (second compound 0.0316 µM, first compound 0.00316 µM) was 109%, the viability, T/C (second compound 0.0316 µM, first compound 0.01 µM) was 100% and the viability, T/C [9] was 93.8%. It also gave a viability, T/C [10] of 89.9%, a viability, T/C [11] of 94.5% and a viability, T/C [12] of 92.6%. For the same compound, the viability, T/C (second compound 0.1 µM, first compound 0.00316 µM) was 92.9%, the viability, T/C (second compound 0.1 µM, first compound 0.01 µM) was 96.8% and the viability, T/C [13] was 97.4%. The viability, T/C [14] was 85.5%, the viability, T/C [15] was 83.7% and the viability, T/C [16] was 82.8%. The viability, T/C (second compound 0.316 µM, first compound 0.00316 µM) was 90.6%, the viability, T/C (second compound 0.316 µM, first compound 0.01 µM) was 98.3% and the viability, T/C [17] was 95.7%. It also gave a viability, T/C [18] of 86.5%, a viability, T/C [19] of 85.4% and a viability, T/C [20] of 79.3%. The viability, T/C (second compound 1 µM, first compound 0.00316 µM) was 90.5%, the viability, T/C (second compound 1 µM, first compound 0.01 µM) was 88% and the viability, T/C [21] was 86.8%. For the same compound, the viability, T/C [22] was 82.3%, the viability, T/C [23] was 83.9% and the viability, T/C [24] was 81.6%.
With `Cn1ncc(Cl)c1-c1cc(C(=O)NC(CN)Cc2cccc(F)c2)sc1Cl` (centres undefined) + CC(Nc1ccc2c(c1)OCCn1cc(N3C(=O)OCC3C(F)F)nc1-2)C(N)=O the IC50 (second compound 0.00316 µM) was > 10 µM, the IC50 (second compound 0.01 µM) was > 10 µM and the IC50 (second compound 0.0316 µM) was > 10 µM. For the same compound, the IC50 (second compound 0.1 µM) was > 10 µM, the IC50 (second compound 0.316 µM) was > 10 µM and the IC50 (second compound 1 µM) was > 10 µM. For the same compound, the viability, T/C [1] was 106%, the viability, T/C [2] was 98.2% and the viability, T/C [3] was 105%. The viability, T/C [4] was 95.3%, the viability, T/C (second compound 0.00316 µM, first compound 3.16 µM) was 93.6% and the viability, T/C (second compound 0.00316 µM, first compound 10 µM) was 97.2%. It also gave a viability, T/C [5] of 109%, a viability, T/C [6] of 102% and a viability, T/C [7] of 110%. The viability, T/C [8] was 95.9%, the viability, T/C (second compound 0.01 µM, first compound 3.16 µM) was 97.6% and the viability, T/C (second compound 0.01 µM, first compound 10 µM) was 102%. For the same compound, the viability, T/C [9] was 109%, the viability, T/C [10] was 109% and the viability, T/C [11] was 99.4%. It also gave a viability, T/C [12] of 102%, a viability, T/C (second compound 0.0316 µM, first compound 3.16 µM) of 90.3% and a viability, T/C (second compound 0.0316 µM, first compound 10 µM) of 99.3%. The viability, T/C [13] was 88.7%, the viability, T/C [14] was 102% and the viability, T/C [15] was 103%. For the same compound, the viability, T/C [16] was 97.5%, the viability, T/C (second compound 0.1 µM, first compound 3.16 µM) was 97.1% and the viability, T/C (second compound 0.1 µM, first compound 10 µM) was 95%. The viability, T/C [17] was 85.7%, the viability, T/C [18] was 100% and the viability, T/C [19] was 95.9%. For the same compound, the viability, T/C [20] was 95.6%, the viability, T/C (second compound 0.316 µM, first compound 3.16 µM) was 98.7% and the viability, T/C (second compound 0.316 µM, first compound 10 µM) was 92.9%. For the same compound, the viability, T/C [21] was 87.1%, the viability, T/C [22] was 85.9% and the viability, T/C [23] was 91.9%. The viability, T/C [24] was 94.4%, the viability, T/C (second compound 1 µM, first compound 3.16 µM) was 91% and the viability, T/C (second compound 1 µM, first compound 10 µM) was 85.7%.
